# Reference: PubChem BioAssay (NCI)
#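 1) Cells in 96-well plates. 2) Compound, 48 h, 5 concentrations. 3) Linear interpolation between surrounding doses. 4) Unreached endpoint = highest concentration. At the GI50, growth is halved. TGI is the concentration that stops growth completely.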
# What was measured:
# Test in all cases: growth of human tumour cells (NCI), 48 h
# [1] = test system: K-562 leukemia
# [2] = test system: NCI-H522 lung
# [3] = test system: RXF 393 renal
# [4] = test system: MOLT-4 leukemia
# [5] = test system: A498 renal
# [6] = test system: SK-MEL-2 melanoma
# [7] = test system: BT-549 breast
# [8] = test system: DLD-1 colon
# [9] = test system: LXFL 529 NSCLC
# [10] = test system: SNB-78 CNS
SMILES,TGI [1],TGI [2],TGI [3],TGI [4],TGI [5],TGI [6],TGI [7],GI50 [1],GI50 [2],GI50 [3],GI50 [4],GI50 [5],GI50 [6],GI50 [7],TGI [8],TGI [9],TGI [10]
Cc1nnc(S(=O)(=O)c2ccc(N=Nc3c(N)nc(N)nc3N)cc2)s1,> 100 µM,> 100 µM,> 100 µM,> 100 µM,> 100 µM,> 100 µM,> 100 µM,–,–,–,–,–,–,–,–,–,–
CC(C)c1ccc(Nc2ccc3c(OCCCN4CCN(C)CC4)cccc3n2)cc1,4.48 µM,39.7 µM,22.4 µM,8.2 µM,36.8 µM,36.5 µM,28.7 µM,2.05 µM,19.9 µM,7.28 µM,2.92 µM,16.4 µM,19.6 µM,12.3 µM,–,–,–
Cc1cc(Br)cc(C)c1NC(=O)C(=O)C(C(=O)c1ccc2ccccc2c1)C1OC(=O)c2ccccc21 (configuration not stated),> 72.9 µM,22.8 µM,17.8 µM,13.4 µM,25.6 µM,34.5 µM,–,–,–,–,–,–,–,–,34.2 µM,22.3 µM,–
Clc1coc2nc3ccccc3c(Nc3ccc4c(c3)OCO4)c12,–,> 23.3 µM,8.47 µM,22 µM,5.82 µM,> 100 µM,27 µM,0.498 µM,2.17 µM,1.51 µM,0.803 µM,1.14 µM,5.99 µM,5.19 µM,–,–,–
Cn1c(=O)c2c(nc(Nc3cc(=O)[nH]c(=O)[nH]3)n2Cc2ccccc2)n(C)c1=O,> 100 µM,> 100 µM,> 100 µM,> 100 µM,> 100 µM,> 100 µM,> 100 µM,82.5 µM,> 100 µM,> 100 µM,> 100 µM,7.97 µM,> 100 µM,69.4 µM,–,–,–
O=C1CN=C(C[N+](=O)[O-])c2ccccc21,> 100 µM,> 100 µM,–,> 100 µM,> 100 µM,> 100 µM,–,–,–,–,–,–,–,–,> 100 µM,> 100 µM,> 100 µM
C[As](C)SC1OC(CO)C(O)C1O (configuration not stated),2.03 µM,0.477 µM,2.37 µM,0.957 µM,3.62 µM,2.92 µM,3.21 µM,0.131 µM,0.167 µM,0.176 µM,0.174 µM,0.516 µM,0.708 µM,0.628 µM,–,–,–
O=c1c2ccccc2[se]n1-c1cccnc1,> 100 µM,55.4 µM,69.2 µM,> 100 µM,61.9 µM,47.9 µM,84.6 µM,–,–,–,–,–,–,–,–,–,–
CC(SC(C)C(=O)N/N=C/c1cccc(Cl)c1)C(=O)N/N=C\c1cccc(Cl)c1 (configuration not stated),> 100 µM,11.6 µM,90.1 µM,42 µM,32.2 µM,25.3 µM,41.6 µM,31.6 µM,3.57 µM,22.6 µM,11.2 µM,14.6 µM,6.9 µM,18.2 µM,–,–,–
C=C(F)C(=O)N1CCN(c2nc(OC[C@@H]3CCCN3C)nc3c2CCN(c2cccc4cccc(Cl)c24)C3)C[C@@H]1CC#N,1.84 µM,1.73 µM,2.66 µM,2.71 µM,2.86 µM,2.8 µM,4.57 µM,0.421 µM,0.441 µM,1.29 µM,0.573 µM,1.39 µM,1.4 µM,2.19 µM,–,–,–
COc1ccc(OC)c(NC(=O)C(=O)NNC(=O)c2sc(NNC(C)=O)nc2C)c1,43.1 µM,44.3 µM,–,47.1 µM,52.1 µM,> 100 µM,–,–,–,–,–,–,–,–,–,81.6 µM,> 100 µM
Oc1[nH]c2ccccc2c1N=Nc1ccccc1Cl,> 100 µM,> 100 µM,> 85.2 µM,> 100 µM,> 79.9 µM,> 100 µM,> 100 µM,–,–,–,–,–,–,–,–,–,–
COC(=O)C1=C(C)N(NC(=O)c2ccccc2)C(C)(O)C12CCOC2=O (configuration not stated),> 100 µM,> 100 µM,–,> 100 µM,> 100 µM,2.41 µM,–,–,–,–,–,–,–,–,> 100 µM,> 100 µM,> 100 µM
NC(=NCCCOc1ccc(Cl)cc1)Nc1ccc(C(F)(F)F)cc1,5.6 µM,4.41 µM,5.52 µM,5 µM,6.08 µM,3.88 µM,6.31 µM,1.76 µM,1.75 µM,1.42 µM,1.41 µM,2.08 µM,1.87 µM,2.32 µM,–,–,–
Oc1ccc(Cl)cc1Cc1cc(Cl)cc(Cl)c1O,28.4 µM,13.2 µM,8.54 µM,32.1 µM,29.2 µM,29 µM,11.9 µM,4.52 µM,3.43 µM,2.54 µM,5.52 µM,8.73 µM,5.53 µM,3.32 µM,–,–,–
Cc1ccc(SC(C)/C=C/NNC2=NC(c3ccccc3)C(c3ccccc3)=NN2)cc1 (configuration not stated),> 100 µM,88.9 µM,–,> 100 µM,> 100 µM,> 100 µM,–,–,–,–,–,–,–,–,> 100 µM,> 100 µM,> 100 µM
C#Cc1cccc(Nc2ncnc3cc(OC)c(OCCCCCCC(=O)NO)cc23)c1,–,0.43 µM,0.367 µM,1.93 µM,0.662 µM,1.85 µM,5.69 µM,0.0817 µM,0.0305 µM,0.0752 µM,0.0864 µM,0.162 µM,0.309 µM,0.783 µM,–,–,–
COC(=O)/C=C/c1cc(O)c2oc(-c3ccc(O)c(O)c3)c(C(=O)OC)c2c1,26.9 µM,4.72 µM,4.84 µM,7.11 µM,9.58 µM,13.2 µM,11.9 µM,0.0511 µM,0.0472 µM,0.523 µM,0.462 µM,1.95 µM,0.74 µM,1.5 µM,–,–,–
COc1ccc(N2C(=O)C(c3ccccc3)(c3ccccc3)C23C(=O)N(C)c2ccccc23)cc1 (configuration not stated),> 100 µM,> 100 µM,> 100 µM,> 100 µM,> 100 µM,> 100 µM,> 100 µM,> 100 µM,> 100 µM,> 100 µM,> 100 µM,> 100 µM,> 100 µM,> 100 µM,–,–,–
